Results taken from patent US11845807B2, “Method and carrier complexes for delivering molecules to cells” (priority 2003, dated 2023).
Square brackets hold non-standard residues; d marks the D form. Peptide text beside a SMILES is read from it. * marks the point of attachment. Dansyl = CN(C)c1cccc2c(S(=O)(=O)*)cccc12; Dmt = Cc1cc(O)cc(C)c1C[C@H](N)C(=O)O; 2Abz = Nc1ccccc1C(=O)O; Dap = NC[C@H](N)C(=O)O; Sar = CNCC(=O)O

How the values were obtained:
Huh7 cells = test: Cell viability by trypan blue uptake; format: cell-based; conditions: 50 μl of 1 mM conjugate in 1 ml medium, 24 hours at 37° C.
Description: Trypan blue is only taken by cells with increased membrane permeability. Huh7 cells (1×10^6) were washed three times in DMEM, and 1 ml of fresh medium, or media containing 50 μl of 1 mM [Dmt^1]DALDA-SMCC conjugate, [D-Arg-Dmt-Lys-Phe-NH2]-SMCC conjugate, or [Phe^1]DALDA-SMCC conjugate, and incubated at 37° C. for 24 hours at 5% CO2. Cells were then washed three times with DMEM, and 1 ml of 0.4% trypan blue was added to the cells for 2 minutes. Excessive dye was removed by washing cells in cell medium and the cells were examined by light microscopy.

Caco-2 cells [1] = test: Assay for peptide uptake in Caco-2 cells; format: cell-based
Text: Assay for Peptide Uptake.

Caco-2 cells [2] = test: Assay for peptide efflux from Caco-2 cells; format: cell-based
Description: Assay for Peptide Efflux from CaCo-2 Cells. […] Cells were then washed four times with 1 ml of ice-cold incubation solution to terminate uptake and then incubated with 0.5 ml of MEM for 1 h at either 37 or 4° C. to measure the efflux of peptide from cells to the incubation medium. The amount of radioactivity was determined in cell lysates and in the incubation medium.

[3] = Peptide translocation across Caco-2 monolayers (Transwell, apical-to-basolateral); format: in vitro ADME; conditions: Caco-2; apical-to-basolateral; read-out: apparent permeability coefficient
Description: (§1) Assay for Peptide Translocation across Caco-2 Monolayers. Monolayers of Caco-2 cells were prepared as described previously (Irie et al., J. Pharmacol. Exp. Ther. 2001, 298: 711-717), Caco-2 cells (2×10^5) were seeded on microporous membrane filters (24 mm, […]) inside Transwell cell culture chambers (Corning Glassworks, Corning, N.Y.). Each Transwell chamber was filled with 1.5 ml of medium in the apical compartment and 2.5 ml in the basolateral compartment. The cell monolayers were given fresh medium every 1 to 2 days and were used on day 28 for transport experiments.
(§2) The apparent permeability coefficient was calculated according to the following equation: Papp=X/(t·A·Co), where X/t is the rate of uptake in the receiver compartment, A is the diffusion area (4.72 cm^2), and Co is the initial concentration in the donor compartment.

Caco-2 monolayer = test: as above; format: in vitro ADME; conditions: 60 min
Description: as §1, §2

Caco-2 cells [4] = conditions: Terada et al. 1999; confirmed in this study (FIG. 2B); cited from earlier work
SH-SY5Y cells = test: Confocal laser scanning microscopy of fluorescent peptide uptake, SH-SY5Y cells; format: cell-based; conditions: 0.1 μM, 30 min at 4° C.
Description: Confocal Laser Scanning Microscopy. The uptake of aromatic-cationic peptides into cells was confirmed by confocal laser scanning microscopy (CLSM) using two fluorescent peptides, [Dmt^1,dnsDap^4]DALDA (Dmt-D-Arg-Phe-dnsDap-NH2, where dnsDap is β-dansyl-1-α-β-diamino-propionic acid) and [Dmt^1.atnDap^4]DALDA (Dmt-D-Arg-Phe-atnDap-NH2, where atn is β-anthraniloyl-L-α-β-diaminopropionic acid). Caco-2 cells or SH-SYSY cells were grown as described above and were plated on (35-mm) glass bottom dishes (MatTek, Ashland, Mass.) for 2 days. […] Cells were then washed three times with ice-cold HESS and covered with 200 μl of PBS, and microscopy was performed within 10 min at room temperature using a confocal laser scanning microscope with a C-Apochromat 63×/1.2 W torr objective (Nikon, Tokyo, Japan). Excitation/emission wavelengths were set at 340/520 nm for [Dmt^1,dnsDap^4]DALDA and 320/420 nm for [Dmt^1,atnDap^4]-DALDA, respectively. For optical sectioning in z-direction, 5 to 10 frames with […] were made.

Caco-2 cells [5] = test: Confocal laser scanning microscopy of fluorescent peptide uptake, Caco-2 cells; format: cell-based; conditions: 0.1 μM, 15 min at 37° C.
Description: Confocal Laser Scanning Microscopy. The uptake of aromatic-cationic peptides into cells was confirmed by confocal laser scanning microscopy (CLSM) using two fluorescent peptides, [Dmt^1,dnsDap^4]DALDA (Dmt-D-Arg-Phe-dnsDap-NH2, where dnsDap is β-dansyl-1-α-β-diamino-propionic acid) and [Dmt^1.atnDap^4]DALDA (Dmt-D-Arg-Phe-atnDap-NH2, where atn is β-anthraniloyl-L-α-β-diaminopropionic acid). Caco-2 cells or SH-SYSY cells were grown as described above and were plated on (35-mm) glass bottom dishes (MatTek, Ashland, Mass.) for 2 days. The medium was then removed, and cells were incubated with 1 ml of HBSS containing 0.1 μM of the fluorescent peptide at either 4° C. or 37° C. for 15 min. Cells were then washed three times with ice-cold HESS and covered with 200 μl of PBS, and microscopy was performed within 10 min at room temperature using a confocal laser scanning microscope with a C-Apochromat 63×/1.2 W torr objective (Nikon, Tokyo, Japan). Excitation/emission wavelengths were set at 340/520 nm for [Dmt^1,dnsDap^4]DALDA and 320/420 nm for [Dmt^1,atnDap^4]-DALDA, respectively. For optical sectioning in z-direction, 5 to 10 frames with […] were made.

Caco-2 cells [6] = test: Uptake of peptide-β-Gal conjugates into cells (β-gal staining); format: cell-based; conditions: 1 h at 37° C.
Text: Conjugation of protein to [Dmt1]DALDA. was cross-linked to β-galactosidase (recombinant E. coli, Sigma-Aldrich) using a cross-linker SMCC (succinimidyl 4-(N-maleimidomethyl)yclohexane-1-carboxylate)(Pierce). […] Its maleimide end can then be conjugated to a sulfhydryl-containing compound to create a thioether linkage (Bioconjugate Techniques by Greg T. Hermanson, Academic Press, page 234-237). β-Gal contains abundant free sulfhydryl groups in its native state. The uptake of β-Gal provides a convenient read-out with the use of X-gal. […] This should result in “activated peptide.” The “activated peptide” was diluted 1:10 with phosphate buffer. 1 mg of β-Gal was added to 1 ml of the 1:10 “activated peptide” and mixed at 4° C. for either 2 h or overnight.
Assay for [Dmt1]DALDA-protein conjugate uptake into cells. […] Cells were then washed 4 times with PBS. The cells were then stained with β-gal staining set (Roche) for at least 2 h at 37° C. and examined under the microscope.
This should result in “activated peptide.” The “activated peptide” was diluted 1:10 with phosphate buffer. 1 mg of β-Gal was added to 1 ml of the 1:10 “activated peptide” and mixed at 4° C. for either 2 h or overnight.
Cells were then washed 4 times with phosphate buffer. The cells were then stained with β-gal staining set (Roche) for at least 2 h at 37° C. and examined under the microscope.

In the case of `CCOC(=O)OC(=O)OCC` [DEPC, diethylpyrocarbonate, reference compound], the “trypan blue uptake (cell viability)” value (Huh7 cells) is reported as “significant uptake of trypan blue”.
In the case of `CN(CC(=O)O)C(=O)CN` [Gly-Sar, reference compound] (H-Gly-[Sar]-OH), the “effect of DEPC on uptake” value (Caco-2 cells [1]; 0.2 mM DEPC) is reported as “significantly inhibited”, the “effect of 4° C. on uptake” value (Caco-2 cells [1]; 4° C. versus 37° C.) is reported as “completely abolished” and the “time course of uptake” value (Caco-2 cells [1]; 37° C., 50 μM) is reported as “continued to increase from 5 to 45 min”. The “effect of temperature (4° C.) on efflux” value (Caco-2 cells [2]; 4° C. versus 37° C.) was “significantly reduced”, the “peptide effluxed into medium” value (Caco-2 cells [2]; preloaded 1 h, 1 h efflux at 37° C.) was 39% and the Papp A→B [3] was 12.6 ×10⁻⁶ cm/s. The “percentage translocated from the apical to the basolateral side” value (Caco-2 monolayer) was 11.9% and the “pH of optimal uptake (by PEPT1)” value (Caco-2 cells [4]) was 6.0.
For `Cc1cc(O)cc(C)c1C[C@H](N)C(=O)N[C@H](CCCNC(=N)N)C(=O)N[C@@H](Cc1ccccc1)C(=O)N[C@@H](CNC(=O)c1ccccc1N)C(N)=O` [[Dmt^1,atnDap^4]DALDA, Dmt-D-Arg-Phe-atnDap-NH2] (H-[Dmt][dR]F[Dap](2Abz)-NH2; N-terminus assumed), the “internalization at 4° C.” value (SH-SY5Y cells) was “energy-independent non-endocytotic uptake mechanism”.
For `Cc1cc(O)cc(C)c1C[C@H](N)C(=O)N[C@H](CCCNC(=N)N)C(=O)N[C@@H](Cc1ccccc1)C(=O)N[C@@H](CNS(=O)(=O)c1cccc2c(N(C)C)cccc12)C(N)=O` [[Dmt^1,dnsDap^4]DALDA, Dmt-D-Arg-Phe-dnsDap-NH2] (H-[Dmt][dR]F[Dap](Dansyl)-NH2; N-terminus assumed), the “intracellular distribution of fluorescence” value (Caco-2 cells [5]) was “diffuse throughout the cytoplasm with no apparent vesicular distribution”, the “nuclear localisation of fluorescence” value (Caco-2 cells [5]) was “completely excluded from the nucleus” and the “intracellular distribution of fluorescence” value (Caco-2 cells [5]; dnsDap^4]DALDA) was “diffuse throughout the cytoplasm”.
For `N=C(N)NCCC[C@@H](NC(=O)[C@@H](N)Cc1ccccc1)C(=O)N[C@@H](Cc1ccccc1)C(=O)N[C@@H](CCCCN)C(N)=O` [[Phe^1]DALDA, Phe-D-Arg-Phe-Lys-NH2] (H-F[dR]FK-NH2; N-terminus assumed), the “trypan blue uptake (cell viability)” value (Huh7 cells) was “No increase in trypan blue uptake”.
With “β-Gal with SMCC: β-Gal conjugated with SMCC alone, without peptide (control) [reference compound]” the “uptake of β-Gal into cells (blue cells)” value (Caco-2 cells [6]) was “did not enhance uptake”.
In the case of “β-Gal: β-galactosidase (recombinant E. coli, Sigma-Aldrich), protein cargo”, the “uptake of β-Gal into cells (blue cells)” value (Caco-2 cells [6]) is reported as “no uptake”.
